Results reported in patent publication EP4670717A1, “PYRROLIDINE-FUSED MYRTANOL DERIVATIVES AS INHIBITORS AND/OR DEGRADERS OF IDO1 UND USE THEREOF” (Max-Planck-Gesellschaft zur Förderung der Wissenschaften …, priority 2024, dated 2025).
“Also recorded” adds a separate entry of the source.

Experiments:
[1] = target: T1, IDO1 (Homo sapiens, UniProt P14902); assay: Kyn assay in BxPC-3 cells (Kyn levels after IFN-γ and Trp); type: cell-based; settings: for IC50: BxPC-3 cells incubated with IFN-γ, Trp and the compounds for 48 h, read-out: Kyn assay IC50 ± SD;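 on all read-outs here: kyn levels expressed relative to DMSO-treated control cells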
T1 construct: BxPC3 cells were seeded in phenol red-free RPMI 1640 medium; endogenous in cells; host or cells: BxPC3 cells stimulated with IFN-γ (50 ng/mL)
Description: BxPC3 cells were seeded in phenol red-free RPMI 1640 medium in 1536-well or 384-well plates (Greiner #782086, Corning #3770) 24 h prior to the addition of compounds, IFN-γ (50 ng/mL, PeproTech) and L-Trp (380 µM, Sigmal-Aldrich). After 48 h of incubation, first cell viability was accessed by the addition of Hoechst-33342. Afterwards, trichloroacetic acid (TCA, Sigma-Aldrich) was added to a final concentration of 7 % and incubated for 10 min prior to a centrifugation step of 10 min at 1620 × g. Kyn levels were determined by means of the Kyn sensor^7 at a final concentration of 17.5 µM in sensor buffer (50 mM H3PO4 and 120 mM NaCl (pH=1)). Fluorescence intensity (excitation: 535 nm, emission: 595 nm) was measured using a Spectramax Paradigm reader (Molecular Devices). Data were normalized to the values for cells that were treated with DMSO.
For the manual assay, BxPC3 or SKOV3 cells were seeded in clear 96-well or 384-well plates, respectively, 24 h prior to compound treatment and IFN-γ (50 or 5 ng/mL, respectively) and L-Trp (380 µM) addition as described before.^7 48 h after treatment, TCA was added and Kyn levels were detected by means of 2 % w/v of p-DMAB (Ehrlich reagent) in acetic acid as described by Braun et al^29. The absorbance of the Ehrlich reagent was detected at 492 nm and at 650 nm as background control was measured on Spark® multimode microplate plate reader (Tecan, Austria). Kyn levels were determined by subtracting the absorbance value at 650 nm and presented relative to the DMSO control. Dose-response curves and IC50 values were generated and fitted with GraphPad Prism 6.0 (GraphPad software, USA) using four-parameter variable slope non-linear regression curve fit.
Cells were incubated with IFN-γ, Trp and the compounds for 48 h prior to detection of Kyn levels.

[2] = target: T2, recombinant human IDO1 (rhIDO1) (Homo sapiens, UniProt P14902); assay: IDO1 enzymatic assay with recombinant protein, Kyn detection with p-DMAB; type: biochemical; settings: pre-incubated with compounds at 37°C for 40 min; for inhibition at 59 µM / rhIDO1 enzymatic activity Inhibition [%]: in vitro inhibition at 59 uM
T2 construct: Full-length rhIDO protein (1 µM) in 50 mM potassium phosphate buffer; GST (cleaved yes); made in house; host or cells: E. coli
Description: Reduction of the kynurenine level in the cell-based model employed for initial SAR exploration can be due to inhibition of enzymatic activity, degradation of IDO1, or both (Table B-2). In order to differentiate between these different activities, we explored the modes of action of selected compounds in an in vitro assay employing recombinant human IDO1 (rhIDO1) monitoring enzymatic activity only, and we characterized the degradation efficiency by means of Western blotting, determining maximum degradation levels at 0.1µM (Dmax) and half maximum degradation concentration (DC50) (Table B-2). Table B-2 in vitro inhibition and degradation of IDO1 by selected compounds. […] Data are mean values ± SD (n = 4, except for compounds 1, 11, and 19 (n=2)). […] Data are mean values of n biological replicates. Dmax corresponds to maximum levels of IDO1 degradation at 0.1 µM.
Full-length rhIDO protein (1 µM) in 50 mM potassium phosphate buffer (50 mM KH2PO4 and 50 mM K2HPO4, pH 6.5) was incubated with the respective compounds for 40 min at 37 °C prior to the addition of 10 mM ascorbic acid, 10 µM methylene blue, 2 mM Trp and 100 µg/mL catalase (Sigma-Aldrich, C100). Samples were incubated for 60 min followed by the addition of trichloroacetic acid to a final concentration of 7 % and further incubation for 30 min at 37 °C. Kyn levels were detected by the addition of an equal volume of 2 % (w/v) p-DMAB in acetic acid and absorbance was measured at 492 nm and 650 nm as a background control. Values are presented relative to the DMSO control. Dose-response curves and IC50 values were generated and fitted with GraphPad Prism 6.0 (GraphPad software, USA) using four-parameter variable slope non-linear regression curve fit.

[3] = target: T1, IDO1; assay: IDO1 degradation in BxPC3 cells, IDO1 protein levels by immunoblotting; type: cell-based; settings: 50 ng/ml IFN-γ 24 h, washout, compound (100 nM) 24 h, maximum IDO1 degradation at 0.1 µM; for Dmax at 0.1 µM: BXPC-3, BxPC3 cells; for Dmax [%] (n): BxPC3 cells;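 on all read-outs here: IDO1 bands on Western blots detected with fluorescent dye-labelled secondary antibodies and quantified by band intensity, values are means of n biological replicates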
Description: To analyze IDO1 levels, IFN-γ-stimulated BxPC3 cells (50 ng/mL IFN-γ), U2OS cells (5 ng/mL IFN-γ), HEK^rhIDO1 (HEK293T cells electroporated with rhIDO1), SKOV3 and BT549 cells were treated with compounds for the indicated times (6 h to 24 h) followed by cell lysis (150 mM sodium chloride in 50 mM Tris (pH 8.0) and 1% NP-40 Alternative, protease and phosphatase inhibitors). Protein concentrations were determined (DC protein assay, Bio-Rad) followed by addition of 1 × SDS loading buffer and protein separation by a 10% SDS-PAGE. Separated protein samples were transferred to a polyvinylidene difluoride (PVDF) membrane using a wet-tank blotting system (Bio-Rad). IDO1 as well as vinculin as a loading were detected using the primary antibodies anti-IDO1 (ab211017, abcam or 14-9750-80, Thermo Fisher), anti-vinculin (V9131, Thermo Fisher) and anti-β-actin (ab8227, abcam) in 5 % milk in PBS-buffered saline with 0.05 % (v/v) Tween-20 (PBS-T). Primary antibodies were incubated at 4°C overnight and detected with IRDye-conjugated secondary antibodies (LI-COR Biosciences). IDO1 protein level in BT549 and SKOV3 cells was detected with HRP conjugated secondary antibody and SuperSignal™ West Dura Extended Duration Substrat (Thermo Fisher Scientific). Washing steps were performed with PBS-T. Protein bands were visualized by ChemiDoc™ MP (Bio-Rad) using a fluorescent readout. Band intensities were quantified using Image Lab software.
In order to differentiate between these different activities, we explored the modes of action of selected compounds in an in vitro assay employing recombinant human IDO1 (rhIDO1) monitoring enzymatic activity only, and we characterized the degradation efficiency by means of Western blotting, determining maximum degradation levels at 0.1µM (Dmax) and half maximum degradation concentration (DC50) (Table B-2). […] Data are mean values of n biological replicates. Dmax corresponds to maximum levels of IDO1 degradation at 0.1 µM.

T1 sequence (P14902 whole entry): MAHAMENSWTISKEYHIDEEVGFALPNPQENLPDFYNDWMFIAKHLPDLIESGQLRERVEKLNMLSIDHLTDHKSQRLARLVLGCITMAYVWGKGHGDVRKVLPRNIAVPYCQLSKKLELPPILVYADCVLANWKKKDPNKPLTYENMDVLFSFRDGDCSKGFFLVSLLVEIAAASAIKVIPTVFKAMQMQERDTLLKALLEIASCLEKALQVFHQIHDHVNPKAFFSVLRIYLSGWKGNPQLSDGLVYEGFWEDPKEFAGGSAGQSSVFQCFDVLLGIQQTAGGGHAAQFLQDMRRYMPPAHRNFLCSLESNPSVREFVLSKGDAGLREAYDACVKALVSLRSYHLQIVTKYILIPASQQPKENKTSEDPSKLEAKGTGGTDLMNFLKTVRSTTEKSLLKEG
T2 sequence (P14902 whole entry): as above

Compound	IC50 [1] [nM]	Dmax at 0.1 µM [3] [%]	further results
CCc1cc(C(C)(C)C)ccc1S(=O)(=O)N1C[C@H]2C[C@H]3C[C@H](C3(C)C)[C@@]2(COC(=O)Nc2ccc(I)cc2)C1 [compound 53, ((3aS,4R,6R,7aS)-2-((4-(tert-butyl)-2-ethylphenyl)sulfonyl)-5,5-dimethyloctahydro-3aH-4,6-methanoisoindol-3a-yl)methyl (4-iodophenyl)carbamate]	< 200	55 to 59	inhibition at 59 µM [2]: 37 ± 9%; Dmax [%] (n) [3]: 56 ± 4 (3) %
CC(C)(C)c1ccc(S(=O)(=O)N2C[C@H]3C[C@H]4C[C@H](C4(C)C)[C@@]3(COC(=O)Nc3ccc(I)cc3)C2)c(I)c1 [compound 57, ((3aS,4R,6R,7aS)-2-((4-(tert-butyl)-2-iodophenyl)sulfonyl)-5,5-dimethyloctahydro-3aH-4,6-methanoisoindol-3a-yl)methyl (4-iodophenyl)carbamate]	< 200	55 to 59	Dmax [%] (n) [3]: 55 ± 5 (3) %
CC(C)(C(=O)O)c1ccc(S(=O)(=O)N2C[C@H]3C[C@H]4C[C@H](C4(C)C)[C@@]3(COC(=O)Nc3ccc(I)cc3)C2)c(Cl)c1 [compound 69, 2-(3-chloro-4-(((3aS,4R,6R,7aS)-3a-((((4-iodophenyl)carbamoyl)oxy)methyl)-5,5-dimethyloctahydro-2H-4,6-methanoisoindol-2-yl)sulfonyl)phenyl)-2-methylpropanoic acid]	< 200	20 ± 12	inhibition at 59 µM [2]: 55 ± 2%; IC50 ([2]; determined if inhibition at 59 µM was higher than 50%, read-out: rhIDO1 enzymatic activity IC50 ± SD): 270 ± 20 nM
C#Cc1ccc(NC(=O)OC[C@]23CN(S(=O)(=O)c4ccc(C(C)(C)C(=O)O)cc4C)C[C@H]2C[C@H]2C[C@@H]3C2(C)C)cc1 [compound 75, 2-(4-(((3aS,4R,6R,7aS)-3a-((((4-ethynylphenyl)carbamoyl)oxy)methyl)-5,5-dimethyloctahydro-2H-4,6-methanoisoindol-2-yl)sulfonyl)-3-methylphenyl)-2-methylpropanoic acid]	< 200	27 ± 14	activity in the cell-based kynurenine assay ([1]; result in words): low nanomolar range
Cc1ccc(NC(=O)OC[C@]23CN(S(=O)(=O)c4ccc(C(C)(C)C)cc4)C[C@H]2C[C@H]2C[C@@H]3C2(C)C)cc1 [compound 1, ((3aS,4R,6R,7aS)-2-((4-(tert-butyl)phenyl)sulfonyl)-5,5-dimethyloctahydro-3aH-4,6-methanoisoindol-3a-yl)methyl p-tolylcarbamate]	200 to 1000	–	rhIDO1 enzymatic activity Inhibition [%] [2]: not active; also recorded: inactive
COc1cc(C(C)(C)C(=O)O)ccc1S(=O)(=O)N1C[C@H]2C[C@H]3C[C@H](C3(C)C)[C@@]2(COC(=O)Nc2ccc(I)cc2)C1 [compound 67, 2-(4-(((3aS,4R,6R,7aS)-3a-((((4-iodophenyl)carbamoyl)oxy)methyl)-5,5-dimethyloctahydro-2H-4,6-methanoisoindol-2-yl)sulfonyl)-3-methoxyphenyl)-2-methylpropanoic acid]	< 200	0	–
COc1cc(C(C)(C)C)ccc1S(=O)(=O)N1C[C@H]2C[C@H]3C[C@H](C3(C)C)[C@@]2(COC(=O)Nc2ccc(I)cc2)C1 [compound 55, ((3aS,4R,6R,7aS)-2-((4-(tert-butyl)-2-methoxyphenyl)sulfonyl)-5,5-dimethyloctahydro-3aH-4,6-methanoisoindol-3a-yl)methyl (4-iodophenyl)carbamate]	< 200	55 to 59	Dmax [%] (n) [3]: 59 ± 16 (3) %
Cc1ccc(NC(=O)OC[C@]23CN(S(=O)(=O)c4ccc(C(C)(C)C)cc4)C[C@H]2C[C@H]2C[C@@H]3C2(C)C)c(C)c1 [compound 7, ((3aS,4R,6R,7aS)-2-((4-(tert-butyl)phenyl)sulfonyl)-5,5-dimethyloctahydro-3aH-4,6-methanoisoindol-3a-yl)methyl (2,4-dimethylphenyl)carbamate]	1000 to 5000	–	–
Cc1cccc(S(=O)(=O)N2C[C@H]3C[C@H]4C[C@H](C4(C)C)[C@@]3(COC(=O)Nc3ccc(I)cc3)C2)c1 [compound 40, ((3aS,4R,6R,7aS)-5,5-dimethyl-2-(m-tolylsulfonyl)octahydro-3aH-4,6-methanoisoindol-3a-yl)methyl (4-iodophenyl)carbamate]	1000 to 5000	–	–
CC(C)(C)c1ccc(S(=O)(=O)N2C[C@H]3C[C@H]4C[C@H](C4(C)C)[C@@]3(COC(=O)Nc3ccccc3I)C2)cc1 [compound 12, ((3aS,4R,6R,7aS)-2-((4-(tert-butyl)phenyl)sulfonyl)-5,5-dimethyloctahydro-3aH-4,6-methanoisoindol-3a-yl)methyl (2-iodophenyl)carbamate]	200 to 1000	–	–
CC1(C)[C@H]2C[C@@H]3CN(S(=O)(=O)c4ccccc4)C[C@]3(COC(=O)Nc3ccc(I)cc3)[C@@H]1C2 [compound 37, ((3aS,4R,6R,7aS)-5,5-dimethyl-2-(phenylsulfonyl)octahydro-3aH-4,6-methanoisoindol-3a-yl)methyl (4-iodophenyl)carbamate]	1000 to 5000	–	–
C#Cc1ccc(NC(=O)OC[C@]23CN(S(=O)(=O)c4ccc(C5(C(F)(F)F)N=N5)cc4)C[C@H]2C[C@H]2C[C@@H]3C2(C)C)cc1 [compound 76, ((3aS,4R,6R,7aS)-5,5-dimethyl-2-((4-(3-(trifluoromethyl)-3H-diazirin-3-yl)phenyl)sulfonyl)octahydro-3aH-4,6-methanoisoindol-3a-yl)methyl (4-ethynylphenyl) carbamate]	< 200	–	–
COC(=O)CC(C)(C)c1ccc(S(=O)(=O)N2C[C@H]3C[C@H]4C[C@H](C4(C)C)[C@@]3(COC(=O)Nc3ccc(I)cc3)C2)cc1 [compound 62, Methyl 3-(4-(((3aS,4R,6R,7aS)-3a-((((4-iodophenyl)carbamoyl)oxy)methyl)-5,5-dimethyloctahydro-2H-4,6-methanoisoindol-2-yl)sulfonyl)phenyl)-3-methylbutanoate]	< 200	–	–
Cc1ccc(NC(=O)OC[C@]23CN(S(=O)(=O)c4ccc(C(F)(F)F)cc4)C[C@H]2C[C@H]2C[C@@H]3C2(C)C)cc1 [compound 32, ((3aS,4R,6R,7aS)-5,5-dimethyl-2-((4-(trifluoromethyl)phenyl)sulfonyl)octahydro-3aH-4,6-methanoisoindol-3a-yl)methyl p-tolylcarbamate]	1000 to 5000	–	–
CC1(C)[C@H]2C[C@@H]3CN(S(=O)(=O)c4ccc(-c5ccccc5)cc4)C[C@]3(COC(=O)Nc3ccc(I)cc3)[C@@H]1C2 [compound 44, ((3aS,4R,6R,7aS)-2-([1,1'-biphenyl]-4-ylsulfonyl)-5,5-dimethyloctahydro-3aH-4,6-methanoisoindol-3a-yl)methyl (4-iodophenyl)carbamate]	200 to 1000	–	–
CCOC(=O)C(C)(C)c1ccc(S(=O)(=O)N2C[C@H]3C[C@H]4C[C@H](C4(C)C)[C@@]3(COC(=O)Nc3ccc(I)cc3)C2)cc1 [compound 64, Ethyl 2-(4-(((3aS,4R,6R,7aS)-3a-((((4-iodophenyl)carbamoyl)oxy)methyl)-5,5-dimethyloctahydro-2H-4,6-methanoisoindol-2-yl)sulfonyl)phenyl)-2-methylpropanoate]	200 to 1000	–	–
COC(=O)C(C)(C)c1ccc(S(=O)(=O)N2C[C@H]3C[C@H]4C[C@H](C4(C)C)[C@@]3(COC(=O)Nc3ccc(I)cc3)C2)c(Cl)c1 [compound 68, Methyl 2-(3-chloro-4-(((3aS,4R,6R,7aS)-3a-((((4-iodophenyl)carbamoyl)oxy)methyl)-5,5-dimethyloctahydro-2H-4,6-methanoisoindol-2-yl)sulfonyl)phenyl)-2-methylpropanoate]	< 200	–	rhIDO1 enzymatic activity Inhibition [%] [2]: inactive
CC(C)(C)Cc1ccc(S(=O)(=O)N2C[C@H]3C[C@H]4C[C@H](C4(C)C)[C@@]3(COC(=O)Nc3ccc(I)cc3)C2)cc1 [compound 47, ((3aS,4R,6R,7aS)-5,5-dimethyl-2-((4-neopentylphenyl)sulfonyl)octahydro-3aH-4,6-methanoisoindol-3a-yl)methyl (4-iodophenyl)carbamate]	200 to 1000	–	–
Cc1ccc(NC(=O)OC[C@]23CN(S(=O)(=O)c4ccc(C5(C(F)(F)F)N=N5)cc4)C[C@H]2C[C@H]2C[C@@H]3C2(C)C)cc1 [compound 35, ((3aS,4R,6R,7aS)-5,5-dimethyl-2-((4-(3-(trifluoromethyl)-3H-diazirin-3-yl)phenyl)sulfonyl)octahydro-3aH-4,6-methanoisoindol-3a-yl)methyl p-tolylcarbamate]	1000 to 5000	–	–
